Laboratory results published in patent US20260271927A1, “PESTICIDALLY ACTIVE BICYCLIC COMPOUNDS” (SYNGENTA CROP PROTECTION AG, priority 2023, published 2026).

Key:
Assay type in all cases: in vivo
[1] = test system: Diabrotica balteata (Corn Root Worm); assay: Diabrotica balteata (corn root worm), sprayed maize sprouts, L2 larvae; details: 96 h, application rate of 200 ppm, 4 days after infestation, read-out: control in at least one of the two categories (mortality or growth inhibition)
Description: Maize sprouts placed onto an agar layer in 24-well microtiter plates were treated with aqueous test solutions prepared from 10′000 ppm DMSO stock solutions by spraying. After drying, the plates were infested with L2 larvae (6 to 10 per well). The samples were assessed for mortality and growth inhibition in comparison to untreated samples 4 days after infestation.

[2] = test system: Tetranychus urticae (Two-Spotted Spider Mite); assay: Tetranychus urticae feeding/contact activity, bean leaf discs; details: foliar, 192 h
Description: Bean leaf discs on agar in 24-well microtiter plates were sprayed with aqueous test solutions prepared from 10′000 ppm DMSO stock solutions. After drying the leaf discs were infested with a mite population of mixed ages. The samples were assessed for mortality on mixed population (mobile stages) 8 days after infestation.

[3] = test system: Spodoptera littoralis (Egyptian Cotton Leaf Worm); assay: Spodoptera littoralis (Egyptian cotton leaf worm), cotton leaf discs, L1 larvae; details: foliar, 72 h, application rate of 200 ppm, 3 days after infestation, read-out: control in at least one of the three categories (mortality, anti-feedant effect, or growth inhibition)
Description: Cotton leaf discs were placed onto agar in 24-well microtiter plates and sprayed with aqueous test solutions prepared from 10′000 ppm DMSO stock solutions. After drying the leaf discs were infested with five L1 larvae. The samples were assessed for mortality, anti-feeding effect, and growth inhibition in comparison to untreated samples 3 days after infestation. Control of Spodoptera littoralis by a test sample is given when at least one of the categories mortality, anti-feedant effect, and growth inhibition is higher than the untreated sample.

[4] = test system: Chilo suppressalis (Striped Rice Stemborer); assay: Chilo suppressalis (striped rice stemborer), artificial diet in 24-well plates, L2 larvae; details: 144 h, application rate of 200 ppm, 6 days after infestation, read-out: control in at least one of the three categories (mortality, anti-feedant effect, or growth inhibition)
Description: 24-well microtiter plates with artificial diet were treated with aqueous test solutions prepared from 10′000 ppm DMSO stock solutions by pipetting. After drying, the plates were infested with L2 larvae (6-8 per well). The samples were assessed for mortality, anti-feeding effect, and growth inhibition in comparison to untreated samples 6 days after infestation. Control of Chilo suppressalis by a test sample is given when at least one of the categories mortality, anti-feedant effect, and growth inhibition is higher than the untreated sample.

[5] = test system: Myzus persicae (Green Peach Aphid); assay: Myzus persicae feeding/contact activity, sunflower leaf discs; details: foliar, 144 h, application rate of 200 ppm, 6 days after infestation
Description: (§1) Sunflower leaf discs were placed onto agar in a 24-well microtiter plate and sprayed with aqueous test solutions prepared from 10′000 ppm DMSO stock solutions. After drying, the leaf discs were infested with an aphid population of mixed ages. The samples were assessed for mortality 6 days after infestation.

[6] = test system: Myzus persicae (Green Peach Aphid); assay: Myzus persicae intrinsic activity, sucrose solution under Parafilm; details: 120 h, application rate of 12.5 ppm, 5 days after infestation, read-out: control (assessed for mortality)
Description: Test compounds prepared from 10′000 ppm DMSO stock solutions were applied by pipette into 24-well microtiter plates and mixed with sucrose solution. The plates were closed with a stretched Parafilm. A plastic stencil with 24 holes was placed onto the plate and infested pea seedlings were placed directly on the Parafilm. The infested plate was closed with a gel blotting paper and another plastic stencil and then turned upside down. The samples were assessed for mortality 5 days after infestation.

[7] = test system: Myzus persicae (Green Peach Aphid); assay: Myzus persicae systemic activity, roots of pea seedlings in test solution; details: 144 h, test rate of 24 ppm, 6 days after placing seedlings into test solutions
Description: Roots of pea seedlings infested with an aphid population of mixed ages were placed directly into aqueous test solutions prepared from 10′000 DMSO stock solutions. The samples were assessed for mortality 6 days after placing seedlings into test solutions.

[8] = test system: Myzus persicae (Green Peach Aphid); assay: Myzus persicae feeding/contact activity, eggplant leaf discs; details: foliar, 144 h, application rate of 200 ppm, 6 days after infestation, read-out: growth inhibition
Description: as §1, with “Eggplant” for “Sunflower”

[9] = test system: Bemisia tabaci (Cotton White Fly); assay: Bemisia tabaci feeding/contact activity, cotton leaf discs, adult white flies; details: foliar, 144 h, application rate of 200 ppm, 6 days after incubation
Description: Cotton leaf discs were placed on agar in 24-well microtiter plates and sprayed with aqueous test solutions prepared from 10′000 ppm DMSO stock solutions. After drying the leaf discs were infested with adult white flies. The samples were checked for mortality 6 days after incubation.

[10] = test system: Plutella xylostella (Diamond Back Moth); assay: Plutella xylostella (diamond back moth), artificial diet, eggs; details: 192 h, application rate of 200 ppm, 8 days after infestation, read-out: effect in at least one of the two categories (mortality or growth inhibition)
Description: 24-well microtiter plates with artificial diet were treated with aqueous test solutions prepared from 10′000 ppm DMSO stock solutions by pipetting. After drying, Plutella eggs were pipetted through a plastic stencil onto a gel blotting paper and the plate was closed with it. The samples were assessed for mortality and growth inhibition in comparison to untreated samples 8 days after infestation.

NC(=O)[C@H]1[C@@H]2CCCO[C@@H]21 (relative stereo) [Compound P1, rel-(1R,6R,7R)-2-oxabicyclo[4.1.0]heptane-7-carboxamide]
percent control (mortality or growth inhibition) at 200 ppm [1]: ≥ 80% | mortality at 200 ppm [2]: ≥ 80%

O=C(Nc1cccn(-c2ccccc2)c1=O)[C@H]1[C@@H]2CCCO[C@@H]21 (relative stereo) [Compound P4, rel-(1S,6S,7S)-N-(2-oxo-1-phenyl-3-pyridyl)-2-oxabicyclo[4.1.0]heptane-7-carboxamide]
percent control (mortality, anti-feedant effect or growth inhibition) at 200 ppm [3]: ≥ 80%

NC(=O)[C@H]1[C@@H]2OCCO[C@@H]21 [Compound P5, (1α,6α,7α)-2,5-dioxabicyclo[4.1.0]heptane-7-carboxamide]
percent control (mortality, anti-feedant effect or growth inhibition) at 200 ppm [4]: ≥ 80% | percent control (mortality or growth inhibition) at 200 ppm [1]: ≥ 80% | mortality at 200 ppm [5]: ≥ 80% | mortality at 12.5 ppm [6]: ≥ 80% | mortality at 24 ppm [7]: ≥ 80% | mortality at 200 ppm [8]: ≥ 80%

CNC(=O)c1ccccc1NC(=O)[C@H]1[C@@H]2OCCO[C@@H]21 [Compound P6]
mortality at 12.5 ppm [6]: ≥ 80% | mortality at 24 ppm [7]: ≥ 80%

O=C(O)[C@H]1[C@@H]2OCCO[C@@H]21 [Compound P7, (1α,6α,7α)-2,5-dioxabicyclo[4.1.0]heptane-7-carboxylic acid]
percent control (mortality, anti-feedant effect or growth inhibition) at 200 ppm [4]: ≥ 80% | mortality at 12.5 ppm [6]: ≥ 80% | mortality at 24 ppm [7]: ≥ 80% | mortality at 200 ppm [8]: ≥ 80% | mortality at 200 ppm [9]: ≥ 80%

CCOC(=O)[C@H]1[C@@H]2OCCO[C@@H]21 [Compound P8, Ethyl(1α,6α,7α)-2,5-dioxabicyclo[4.1.0]heptane-7-carboxylate]
percent control (mortality, anti-feedant effect or growth inhibition) at 200 ppm [4]: ≥ 80% | percent control (mortality or growth inhibition) at 200 ppm [1]: ≥ 80% | mortality at 12.5 ppm [6]: ≥ 80% | mortality at 24 ppm [7]: ≥ 80% | mortality at 200 ppm [8]: ≥ 80% | percent effect (mortality or growth inhibition) at 200 ppm [10]: ≥ 80% | mortality at 200 ppm [9]: ≥ 80%

CN(C)C(=O)[C@H]1[C@@H]2OCCO[C@@H]21 [Compound P10, (1α,6α,7α)-N,N-dimethyl-2,5-dioxabicyclo[4.1.0]heptane-7-carboxamide]
percent control (mortality, anti-feedant effect or growth inhibition) at 200 ppm [4]: ≥ 80%

O=C(NOCc1ccccc1)[C@H]1[C@@H]2OCCO[C@@H]21 [Compound P13, (1α,6α,7α)-N-benzyloxy-2,5-dioxabicyclo[4.1.0]heptane-7-carboxamide]
mortality at 24 ppm [7]: ≥ 80% | mortality at 200 ppm [8]: ≥ 80% | mortality at 200 ppm [9]: ≥ 80%

O=C(NOCc1c(F)cccc1F)[C@H]1[C@@H]2OCCO[C@@H]21 [Compound P14, (1α,6α,7α)-N-[(2,6-difluorophenyl)methoxy]-2,5-dioxabicyclo[4.1.0]heptane-7-carboxamide]
percent control (mortality, anti-feedant effect or growth inhibition) at 200 ppm [4]: ≥ 80% | mortality at 24 ppm [7]: ≥ 80% | mortality at 200 ppm [8]: ≥ 80%

CCONC(=O)[C@H]1[C@@H]2OCCO[C@@H]21 [Compound P15, (1α,6α,7α)-N-ethoxy-2,5-dioxabicyclo[4.1.0]heptane-7-carboxamide]
percent control (mortality, anti-feedant effect or growth inhibition) at 200 ppm [4]: ≥ 80% | mortality at 12.5 ppm [6]: ≥ 80% | mortality at 24 ppm [7]: ≥ 80% | mortality at 200 ppm [8]: ≥ 80% | percent effect (mortality or growth inhibition) at 200 ppm [10]: ≥ 80%

Cc1cccc(NC(=O)[C@H]2[C@@H]3OCCO[C@@H]32)c1 [Compound P16, (1α,6α,7α)-N-(m-tolyl)-2,5-dioxabicyclo[4.1.0]heptane-7-carboxamide]
mortality at 200 ppm [8]: ≥ 80%

Cc1ccc(NC(=O)[C@H]2[C@@H]3OCCO[C@@H]32)c(F)c1 [Compound P17, (1α,6α,7α)-N-(2-fluoro-4-methyl-phenyl)-2,5-dioxabicyclo[4.1.0]heptane-7-carboxamide]
percent control (mortality or growth inhibition) at 200 ppm [1]: ≥ 80%

Cc1ccc(NC(=O)[C@H]2[C@@H]3OCCO[C@@H]32)cc1 [Compound P18, (1α,6α,7α)-N-(p-tolyl)-2,5-dioxabicyclo[4.1.0]heptane-7-carboxamide]
percent control (mortality or growth inhibition) at 200 ppm [1]: ≥ 80% | mortality at 24 ppm [7]: ≥ 80%

O=C(NCc1cc(Cl)ccc1Cl)[C@H]1[C@@H]2OCCO[C@@H]21 [Compound P19, (1α,6α,7α)-N-[(2,5-dichlorophenyl)methyl]-2,5-dioxabicyclo[4.1.0]heptane-7-carboxamide]
percent control (mortality or growth inhibition) at 200 ppm [1]: ≥ 80%

O=C(NCC1CC1)[C@H]1[C@@H]2OCCO[C@@H]21 [Compound P28, (1α,6α,7α)-N-(cyclopropylmethyl)-2,5-dioxabicyclo[4.1.0]heptane-7-carboxamide]
percent control (mortality, anti-feedant effect or growth inhibition) at 200 ppm [3]: ≥ 80%

Cc1ccccc1NC(=O)[C@H]1[C@@H]2OCCO[C@@H]21 [Compound P29, (1α,6α,7α)-N-(o-tolyl)-2,5-dioxabicyclo[4.1.0]heptane-7-carboxamide]
percent control (mortality or growth inhibition) at 200 ppm [1]: ≥ 80% | mortality at 24 ppm [7]: ≥ 80%

Cn1ccc(NC(=O)[C@H]2[C@@H]3OCCO[C@@H]32)n1 [Compound P30, (1α,6α,7α)-N-(1-methylpyrazol-3-yl)-2,5-dioxabicyclo[4.1.0]heptane-7-carboxamide]
percent control (mortality or growth inhibition) at 200 ppm [1]: ≥ 80% | mortality at 24 ppm [7]: ≥ 80%

O=C(NOC1CCC1)[C@H]1[C@@H]2OCCO[C@@H]21 [Compound P31, (1α,6α,7α)-N-(cyclobutoxy)-2,5-dioxabicyclo[4.1.0]heptane-7-carboxamide]
percent control (mortality, anti-feedant effect or growth inhibition) at 200 ppm [4]: ≥ 80% | percent control (mortality or growth inhibition) at 200 ppm [1]: ≥ 80% | mortality at 24 ppm [7]: ≥ 80% | mortality at 200 ppm [8]: ≥ 80%

O=C(Nc1cc2ccccn2n1)[C@H]1[C@@H]2OCCO[C@@H]21 [Compound P33]
percent control (mortality or growth inhibition) at 200 ppm [1]: ≥ 80%

Cn1cc(NC(=O)[C@H]2[C@@H]3OCCO[C@@H]32)cn1 [Compound P36, (1α,6α,7α)-N-(1-methylpyrazol-4-yl)-2,5-dioxabicyclo[4.1.0]heptane-7-carboxamide]
percent control (mortality or growth inhibition) at 200 ppm [1]: ≥ 80% | mortality at 24 ppm [7]: ≥ 80% | mortality at 200 ppm [8]: ≥ 80%

O=C(NC1CCOCC1)[C@H]1[C@@H]2OCCO[C@@H]21 [Compound P37, (1α,6α,7α)-N-tetrahydropyran-4-yl-2,5-dioxabicyclo[4.1.0]heptane-7-carboxamide]
mortality at 24 ppm [7]: ≥ 80%

Cn1nccc1NC(=O)[C@H]1[C@@H]2OCCO[C@@H]21 [Compound P38, (1α,6α,7α)-N-(2-methylpyrazol-3-yl)-2,5-dioxabicyclo[4.1.0]heptane-7-carboxamide]
percent control (mortality or growth inhibition) at 200 ppm [1]: ≥ 80%

CCC(NC(=O)[C@H]1[C@@H]2OCCO[C@@H]21)c1ccc(Cl)cc1 (stereo partly drawn) [Compound P40, (1α,6α,7α)-N-[1-(4-chlorophenyl)propyl]-2,5-dioxabicyclo[4.1.0]heptane-7-carboxamide]
percent control (mortality or growth inhibition) at 200 ppm [1]: ≥ 80%

O=C(NCc1ccccc1)[C@H]1[C@@H]2OCCO[C@@H]21 [Compound P41, (1α,6α,7α)-N-benzyl-2,5-dioxabicyclo[4.1.0]heptane-7-carboxamide]
percent control (mortality, anti-feedant effect or growth inhibition) at 200 ppm [4]: ≥ 80%
